Laboratory results: paper PMC3855626 (Biochemistry, 2013)
Several values for one entry are separate records, joined by “and”; a condition that tells them apart may be missing. Identical values can stand only once. Marks after values point to notes of the source that are not given here.

Assays:
M4 D78N/D112N [1] = target: T1, M4 D78N/D112N (Homo sapiens, UniProt P08173, D112N/D78N); assay type: binding
M2 D69N = assay type: binding, human
M4 D112N = assay type: binding, human
M4 D78N = assay type: binding, human
M4 D78N/D112N [2] = target: T1, M4 D78N/D112N; assay type: binding; remark: listed apart in the source
M4 D78N/D112N [3] = target: T1, M4 D78N/D112N; experiment: biochemical; assay type: binding
M3 D148N = assay type: binding, human
[4] = target: wild type M1 muscarinic receptors (Homo sapiens, UniProt P11229); assay type: binding
M2 D69N/D103N [5] = target: T2, M2 D69N/D103N (Homo sapiens, UniProt P08172, D103N/D69N); assay type: binding
M4 D1 12N + M4 D78N = assay type: binding, human
guinea pig ileum = conditions: cited from earlier work
M3 D114N/D148N [6] = target: T3, M3 D114N/D148N (Homo sapiens, UniProt P20309, D114N/D148N); assay type: binding
M2 D69N/D103N [7] = target: T2, M2 D69N/D103N; assay type: binding; remark: listed apart in the source
M3 D148N + M3 D114N = assay type: binding, human
wild type M4 receptor = wild type M4 receptor (Homo sapiens, UniProt P08173); experiment: biochemical; assay type: binding
M2 D103N = M2 D103N (Homo sapiens, UniProt P08172, D103N); assay type: binding
M4 receptors = assay type: binding, human
[8] = system: cerebral muscarinic receptors; assay type: binding, rat
[9] = system: M1 – M4 muscarinic receptors; assay type: binding, human
[10] = target: wild type M2 muscarinic receptors (Homo sapiens, UniProt P08172); assay type: binding
M2 D69N/D103N [11] = target: T2, M2 D69N/D103N; experiment: biochemical; assay type: binding
M2 D103N + M2 D69N = assay type: binding, human
M3 D114N = assay type: binding, human
M3 receptors = assay type: binding, human
M3 D114N/D148N [12] = target: T3, M3 D114N/D148N
M2 wild type = M2 wild type (Homo sapiens, UniProt P08172); assay type: binding
wild type M4 receptors = assay type: binding, human
[13] = read-out: inhibition of [3H]NMS binding

T2 sequence (P08172 whole entry D69N/D103N, looked up): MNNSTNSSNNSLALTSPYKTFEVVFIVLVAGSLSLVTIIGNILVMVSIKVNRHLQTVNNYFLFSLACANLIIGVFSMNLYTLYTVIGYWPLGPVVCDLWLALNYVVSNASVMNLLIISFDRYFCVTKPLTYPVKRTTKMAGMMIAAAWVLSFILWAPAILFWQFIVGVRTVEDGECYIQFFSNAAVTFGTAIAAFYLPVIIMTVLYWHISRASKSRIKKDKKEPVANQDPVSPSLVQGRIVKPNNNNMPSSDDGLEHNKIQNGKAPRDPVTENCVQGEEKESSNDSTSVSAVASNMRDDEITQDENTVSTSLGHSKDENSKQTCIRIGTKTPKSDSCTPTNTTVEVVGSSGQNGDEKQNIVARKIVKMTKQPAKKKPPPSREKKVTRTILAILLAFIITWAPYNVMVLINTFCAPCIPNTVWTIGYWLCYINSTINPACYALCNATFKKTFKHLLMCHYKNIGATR
Chain of wild type M4 receptor (P08173 whole entry): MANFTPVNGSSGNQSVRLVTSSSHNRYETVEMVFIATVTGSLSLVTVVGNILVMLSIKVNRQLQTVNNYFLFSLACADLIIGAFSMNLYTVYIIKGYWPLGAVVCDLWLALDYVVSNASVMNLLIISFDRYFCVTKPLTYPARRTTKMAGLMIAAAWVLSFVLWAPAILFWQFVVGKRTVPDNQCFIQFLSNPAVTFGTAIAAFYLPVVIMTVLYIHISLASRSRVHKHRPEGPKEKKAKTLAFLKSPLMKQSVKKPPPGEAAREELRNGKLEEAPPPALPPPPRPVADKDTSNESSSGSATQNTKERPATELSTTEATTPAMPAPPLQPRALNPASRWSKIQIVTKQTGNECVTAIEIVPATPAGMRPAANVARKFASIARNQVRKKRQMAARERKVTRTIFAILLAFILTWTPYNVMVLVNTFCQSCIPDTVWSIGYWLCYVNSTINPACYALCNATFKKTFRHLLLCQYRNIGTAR
T1 sequence (P08173 whole entry D78N/D112N, looked up): as the sequence (P08173 whole entry) above, with D78N, D112N counted along it
T3 sequence (P20309 whole entry D114N/D148N, looked up): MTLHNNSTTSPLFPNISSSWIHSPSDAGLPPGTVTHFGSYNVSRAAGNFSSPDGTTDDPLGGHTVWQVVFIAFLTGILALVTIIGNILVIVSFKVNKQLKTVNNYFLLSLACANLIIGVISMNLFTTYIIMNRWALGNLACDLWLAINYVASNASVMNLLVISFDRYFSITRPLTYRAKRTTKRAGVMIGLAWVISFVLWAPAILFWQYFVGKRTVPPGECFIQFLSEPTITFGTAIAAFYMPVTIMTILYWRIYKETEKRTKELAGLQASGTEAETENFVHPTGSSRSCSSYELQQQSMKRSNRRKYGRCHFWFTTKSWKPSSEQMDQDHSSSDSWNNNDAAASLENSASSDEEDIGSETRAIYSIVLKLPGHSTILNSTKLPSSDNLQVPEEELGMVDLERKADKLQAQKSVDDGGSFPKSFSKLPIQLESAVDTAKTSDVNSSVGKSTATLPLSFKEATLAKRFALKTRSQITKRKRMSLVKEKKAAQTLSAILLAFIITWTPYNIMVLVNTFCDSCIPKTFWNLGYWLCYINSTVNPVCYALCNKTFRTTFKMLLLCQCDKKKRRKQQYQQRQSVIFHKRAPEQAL
Chain of M2 wild type (P08172 whole entry): as the sequence (P08172 whole entry D69N/D103N, looked up) above, with N69D, N103D counted along it
Chain of wild type M2 muscarinic receptors (P08172 whole entry): as the sequence (P08172 whole entry D69N/D103N, looked up) above, with N69D, N103D counted along it
Chain of wild type M1 muscarinic receptors (P11229 whole entry): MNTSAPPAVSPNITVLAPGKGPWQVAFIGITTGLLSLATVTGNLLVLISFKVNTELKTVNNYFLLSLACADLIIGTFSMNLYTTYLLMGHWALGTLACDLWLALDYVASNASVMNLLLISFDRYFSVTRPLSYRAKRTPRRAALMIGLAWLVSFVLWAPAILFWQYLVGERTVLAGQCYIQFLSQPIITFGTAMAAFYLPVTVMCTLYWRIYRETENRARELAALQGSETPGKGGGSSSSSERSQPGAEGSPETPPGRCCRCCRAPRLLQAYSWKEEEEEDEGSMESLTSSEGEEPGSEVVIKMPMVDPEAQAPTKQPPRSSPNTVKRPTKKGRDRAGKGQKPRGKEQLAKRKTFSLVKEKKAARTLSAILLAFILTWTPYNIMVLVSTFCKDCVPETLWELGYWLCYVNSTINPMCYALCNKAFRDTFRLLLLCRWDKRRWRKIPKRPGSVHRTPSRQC
Chain of M2 D103N (P08172 whole entry D103N, looked up): as the sequence (P08172 whole entry D69N/D103N, looked up) above, with N69D counted along it

CN(CC#CCOC(=O)Nc1cccc(Cl)c1)CCBr [BR384, 4-[(2-bromoethyl)methyl-amino]-2-butynyl N-(3-chlorophenyl)carbamate]
alkylation (M4 D78N/D112N [1]): 44 ± 0.6% | increase in affinity relative to wild type (M2 D69N): about 30 fold | Δ log K1 (M2 D69N): −1.39 ± 0.35 | Δ log K1 (M4 D112N): 0.65 ± 0.13 | increase in affinity relative to wild type (M4 D78N): about 30 fold | Δ log K1 (M4 D78N): −1.27 ± 0.11 | Δ log K1 (M4 D78N/D112N [2]): 0.69 ± 0.32 ^c | IC50 (M4 D78N/D112N [3]): 69.2 µM | inhibition at 300 µM (M4 D78N/D112N [3]; [13]): 88 ± 0.7% | Δ log K1 (M3 D148N): 1.17 ± 0.07 | receptors alkylated after adding the stopping solution [4]: 28% | alkylation (M2 D69N/D103N [5]): 48 ± 4.2% | Δ log K1 (M4 D1 12N + M4 D78N): −0.62 ± 0.17 | contractile action (guinea pig ileum): lack of contractile action | Δ log K1 (M3 D114N/D148N [6]): 0.75 ± 0.12 | Δ log K1 (M2 D69N/D103N [7]): −0.25 ± 0.25 | Δ log K1 (M3 D148N + M3 D114N): 0.48 ± 0.08 | average estimate of k1 (wild type M4 receptor): 0.82 min⁻¹ | b (proportion of receptors that can bind [3H]NMS but not be alkylated) (wild type M4 receptor): 7.7 ± 1.8% and 7.7% | k1 (rate constant for alkylation) (wild type M4 receptor): 0.93 ± .020 min⁻¹ | rate constant (k1) (wild type M4 receptor): 0.99 ± 0.045 min⁻¹ and 1.05 ± 0.10 min⁻¹ and 0.75 ± 0.06 min⁻¹ and 0.74 ± 0.086 min⁻¹ | Kd (wild type M4 receptor; average estimate of log K1): 8.71 µM | Kd (wild type M4 receptor; log K1 (dissociation constant of the aziridinium ion)): 8.91 µM | Kd (wild type M4 receptor; log dissociation constant (log K1)): 12.3 µM and 7.94 µM and 6.76 µM | Δ log K1 (M2 D103N): 1.23 ± 0.26 | maximum estimate of b (M4 receptors): 0.085 | rate of recovery of [3H]NMS binding [8]: negligible | affinity of the aziridinium ion relative to McN-A-343 [9]: four- to seven-fold higher affinity | receptors alkylated after adding the stopping solution [10]: 28% | IC50 (M2 D69N/D103N [11]): 28.8 µM | inhibition at 300 µM (M2 D69N/D103N [11]; [13]): 97 ± 1.3% | Δ log K1 (M2 D103N + M2 D69N): −0.17 ± 0.43 | increase in affinity relative to wild type (M3 D114N): ~5 fold | Δ log K1 (M3 D114N): −0.69 ± 0.02 | maximum estimate of b (M3 receptors): 0.067

CC(=O)OCC[N+](C)(C)C [Acetylcholine, acetylcholine]
Hill slope of competition curve (M3 D114N/D148N [12]): 0.56 | Hill slope of competition curve (M2 wild type): 0.69 | affinity relative to the aziridinium ion of AChM (M2 wild type): about 15 fold | affinity relative to the aziridinium ion of AChM (wild type M4 receptors): five-fold higher affinity
